Laboratory results taken from patent US20090143761A1, “AGENT DELIVERY SYSTEM AND USES OF SAME” (T[…] COMPANY, LLC, priority 2005, published 2009).
Entries after “also recorded” stand apart in the source; their conditions may differ.

Tests used:
[1] = 52.8 mM and 105.6 mM donor
[2] = patients who are prescribed lithium; cited from earlier work
[3] = in vivo; cited from earlier work
[4] = lithium concentration of 158.4 mM, iontophoresis, mice
Method: First, the total charge delivered to the animal during the course of the experiment was determined.
The animal model employed was that of the SKH-1 male mouse, 6 weeks old, obtained from Charles River Laboratories. The mice arrived the morning of the experiments and were used within three hours of their arrival.
Due to the fragility of the iontophoresis pad application and electrode attachment, the mice had to be restrained during the experiments. To accomplish this, a commercial mouse restrainer was purchased from Kent Scientific and modified with two holders on either side of the restrainer. The holders were placed over existing access holes in the restrainer such that spring loaded electrodes could be positioned within the holder.
The mice were given a low dosage of Halothane to allow them to be weighed and positioned in the restrainer so that there was minimal risk of the electrode pads being kicked or scraped off of the patch as the mouse was being positioned. The Halothane was administered by saturating a paper towel that had been placed at the bottom of a glass desiccator jar. The jar was placed in an exhaust fume hood prior to opening the Halothane bottle. This gave a saturated Halothane environment, in a well-ventilated area, and allowed the effects of the anesthesia to be closely monitored. […]

[5] = cited from earlier work
[6] = Stability of primaquine after exposure to iontophoresis, thin layer chromatography; conditions: silica gel TLC, n-butanol:acetic acid:water (5:3:2)
[7] = In-vitro transdermal delivery of primaquine patch across human epidermal membranes with iontophoresis
[8] = Calculated diffusion and mass transfer coefficients in membranes of different thickness; conditions: Urea in 5.15% agar gel vs Urea, 1 mm layer
Source text: A simplified model can be developed to account for the transport of molecules out of the skin and through the sampling chamber. The model consists of diffusion through the skin, which can be approximated by diffusion through a semi-porous protein matrix membrane and then diffusion into a bulk solution. The concentration profile in the membrane and in the bulk solution may not be consistent, in which case a partition coefficient can be used to relate the transport of molecules from the membrane to the bulk solution. The use of an iontophoretic device can, by nature of the process, produce an electric field. […]
The bulk phase diffusivity needs to be adjusted to take into account the winding path through a porous matrix. The effective diffusivity is calculated from the bulk diffusivity, void fraction, and the tortuosity. The mass transfer coefficient can be calculated from the effective diffusivity and the membrane thickness. The flux of molecules in the presence of an electrical charge can be calculated with the Nernst-plank equation.
To illustrate the effect of diffusion through a porous matrix a few calculations were performed as an example. Assuming a protein layer of 1 mm, the mass transfer coefficients were calculated for Urea (0.88 microns/s) and for Urea in a 5.15% agar gel (0.47 microns/s). […]

[9] = oral administration of tablets; cited from earlier work
[10] = excised rabbit pinna skin; cited from earlier work
humans = conditions: cited from earlier work
plasma cholinesterase = target: T1, plasma cholinesterase (Homo sapiens, UniProt P06276); assay: Selective inhibition of cholinesterase activity in plasma samples; assay type: biochemical; conditions: quinidine 20 μM; BTC vs other substrate
T1 construct: confirming the capacity of the BTC substrate to detect cholinesterase activity in plasma; from tissue; host or cells: plasma
T1 sequence (P06276 29-602): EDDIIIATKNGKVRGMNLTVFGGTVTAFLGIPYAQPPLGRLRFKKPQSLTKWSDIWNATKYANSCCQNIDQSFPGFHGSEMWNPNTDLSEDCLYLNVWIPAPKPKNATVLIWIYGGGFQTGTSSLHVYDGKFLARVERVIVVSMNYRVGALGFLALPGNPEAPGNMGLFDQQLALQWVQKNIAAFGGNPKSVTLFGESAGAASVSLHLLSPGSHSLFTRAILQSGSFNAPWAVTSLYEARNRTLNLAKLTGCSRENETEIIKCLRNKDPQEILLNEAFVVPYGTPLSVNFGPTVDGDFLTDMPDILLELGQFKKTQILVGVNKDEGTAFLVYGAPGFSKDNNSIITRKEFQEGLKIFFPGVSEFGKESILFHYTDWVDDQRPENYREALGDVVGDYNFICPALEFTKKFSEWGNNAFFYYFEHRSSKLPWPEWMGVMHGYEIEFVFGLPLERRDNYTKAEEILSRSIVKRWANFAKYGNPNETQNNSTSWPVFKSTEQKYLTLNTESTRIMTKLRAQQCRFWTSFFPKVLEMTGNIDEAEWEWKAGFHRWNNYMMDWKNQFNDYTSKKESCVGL

Uremic rats = conditions: intermittent administration; cited from earlier work
[11] = cyclic voltammagrams

O=C([O-])[O-].[Li+].[Li+] [lithium, lithium carbonate]
effect of donor compartment lithium carbonate concentration on receiver compartment lithium concentration [1]: caused an equivalent increase in the receiver compartment lithium concentration | patients who experience some adverse effects [2]: More than 80% | plasma elimination half-life [3]: 12 to 27 h | serum concentration of lithium [4]: approximately 0.2 mM

COc1cc(NC(C)CCCN)c2ncccc2c1 (stereo not shown) [primaquine]
share of the 10 mg dose delivered passively each hour ([5]; passive delivery): Approximately 5% | amount of primaquine delivered transdermally ([5]; within 24 hours, to achieve therapeutic plasma concentrations): 10 mg | stability of the primaquine molecule after exposure to iontophoresis (TLC of receptor compartment contents) [6]: intact primaquine is present; also recorded: there is more than one species of molecule present | passive diffusion of primaquine before and after iontophoresis ([7]; epidermal membrane, receptor PBS pH 7.4, no current applied): Minimal passive diffusion | amount of primaquine delivered using electrotransport ([7]; in 40 minutes): 160 µg

NC(N)=O [Urea]
decrease of mass transfer by addition of a gel matrix [8]: 47%

COC(=O)C(c1ccccc1)C1CCCCN1 (stereo not shown) [Methylphenidate]
bioavailability [9]: approximately 30%

NC(=O)[C@@H]1CCCN1C(=O)[C@H](Cc1cnc[nH]1)NC(=O)[C@@H]1CCC(=O)N1 [TRH, Thyrotropin-releasing hormone]
pulsed vs continuous current iontophoretic flux [10]: the pulsed iontophoretic flux exceeded that obtained with a continuous current

CNC1(C)C2CCC(C2)C1(C)C (stereo not shown) [mecamylamine, Mecamylamine]
effect on self-reported effects of alcohol (humans): reduces the self-reported stimulant and euphoric effects of alcohol

C=C[C@H]1C[N@@]2CC[C@H]1C[C@@H]2[C@@H](O)c1ccnc2ccc(OC)cc12 [quinidine]
inhibitory effect on cholinesterase activity in plasma samples (plasma cholinesterase): the inhibitory effect was observed only when BTC was used

PTH(1-37): parathyroid hormone fragment given intermittently to Uremic rats (AVSEIQLMHNLGKHLASVERMQWLRKKLQDVHNFVSL; Parathyroid hormone; UniProt P04089 32-68, looked up, fragment)
effect on growth and bone mineral density (Uremic rats): improves growth and bone mineral density

CN1CCCC1c1cccnc1 (stereo not shown) [nicotine]
voltage at which nicotine is oxidized [11]: ~1 volt
